From patent publication US20210330611A1, “THERAPY FOR NEUROLOGICAL DISEASES/DISORDERS” (priority 2020, published 2021)
Counter-ions that a name gives are not always drawn. Like-named read-outs stand apart in the source and are kept apart here.

Columns and labels:
[1] = test system: fibrin-induced microglia activation; test: Image-based assay of fibrin-induced microglia activation (HTS and dose response); format: cell-based, rat; details: for inhibition at 10 µM: Rattus norvegicus, Microglia, read-out: Fibrin % inhibition
[2] = test system: LPS-induced microglia activation; test: Image-based assay of LPS-induced microglia activation (HTS and dose response); format: cell-based, rat
[3] = test system: fibrin- and LPS-induced microglia activation; test: cells; format: cell-based, rat
primary rat microglia [4] = test system: primary rat microglia;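 for Fibrin % cell toxicity: share of dead cells sized under 150 µm2 at 10 µM in fibrin-stimulated microglia HTS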
primary rat microglia [5] = test system: primary rat microglia; remark: listed apart in the source;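 for Fibrin % cell toxicity: share of dead cells sized under 150 µm2 at 10 µM in fibrin-stimulated microglia HTS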
[6] = Rattus norvegicus, Microglia, read-out: LPS % inhibition
[7] = primary microglia HTS, fibrin stimulation, cell size >800 μm2 as marker of activation
[8] = Rattus norvegicus, Microglia, 48 h; read-out: LPS % inhibition
[9] = classification by fibrin and LPS inhibition in HTS
[10] = primary microglia HTS, fibrin stimulation, compounds at 10 μM
[11] = Rattus norvegicus, Microglia, primary microglia HTS, LPS stimulation, compounds at 10 μM; read-out: LPS % inhibition
[12] = classification by fibrin and LPS inhibition, HTS at 10 μM
[13] = primary microglia HTS, fibrin stimulation, increased cell size (>800 μm^2) as marker of activation
[14] = Rattus norvegicus, Microglia, 48 h, primary microglia HTS, LPS stimulation; increased cell size (>800 μm^2) as marker of activation; read-out: LPS % inhibition
[15] = quadrant by fibrin and LPS inhibition in HTS of 1907 compounds
[16] = primary HTS, 10 μM, fibrin-stimulated primary microglia
[17] = primary microglia HTS, 10 μM, fibrin-stimulated, cell size >800 μm^2 as marker of activation
[18] = HTS of 1907 compounds, quadrant by fibrin and LPS inhibition
[19] = primary microglia HTS, fibrin stimulation, activation = cell size >800 μm2
[20] = Rattus norvegicus, Microglia, 48 h, primary microglia HTS, LPS stimulation, activation = cell size >800 μm2; read-out: LPS % inhibition
[21] = Rattus norvegicus, Microglia, 48 h, read-out: LPS % inhibition

NCCNCCNCCN [Triethylenetetramine]
inhibition at 10 µM [1]: 3% | inhibition at 10 µM [2, 6]: 10% | Quadrant (FIG. 5b) [3]: Q4 | Fibrin % cell toxicity (primary rat microglia [4]; rat): 1% | LPS % cell toxicity (primary rat microglia [5]; rat): 0%

CCCCCCCCCCCCCCCC(=O)OC/C=C(C)/C=C/C=C(C)/C=C/C1=C(C)CCCC1(C)C [Retinyl Palmitate]
inhibition at 10 µM [1, 7]: -15% | inhibition at 10 µM [2, 8]: 11% | Quadrant (FIG. 5b) [3, 9]: Q4 | Fibrin % cell toxicity (primary rat microglia [4]; rat): 0% | LPS % cell toxicity (primary rat microglia [5]; rat): 0%

Nc1ccc(S(=O)(=O)c2ccc(N)cc2)cc1 [Dapsone]
inhibition at 10 µM [1, 10]: -23% | inhibition at 10 µM [2, 11]: 11% | Quadrant (FIG. 5b) [3, 12]: Q4 | Fibrin % cell toxicity (primary rat microglia [4]; rat): 1% | LPS % cell toxicity (primary rat microglia [5]; rat): 0%

COC(=O)C1=C(C)NC(C)=C(C(=O)OCC(C)C)C1c1ccccc1[N+](=O)[O-] (centres unmarked) [Nisoldipine]
inhibition at 10 µM [1, 13]: 6% | inhibition at 10 µM [2, 14]: 25% | Quadrant (FIG. 5b) [3, 15]: Q4 | Fibrin % cell toxicity (primary rat microglia [4]; rat): 1% | LPS % cell toxicity (primary rat microglia [5]; rat): 1%

O=C(O)c1cc(=O)[nH]c(=O)[nH]1 [Orotic Acid]
inhibition at 10 µM [1, 13]: -5% | inhibition at 10 µM [2, 14]: 16% | Quadrant (FIG. 5b) [3, 15]: Q4 | Fibrin % cell toxicity (primary rat microglia [4]; rat): 0% | LPS % cell toxicity (primary rat microglia [5]; rat): 0%

C=C[C@H]1C[N@@]2CC[C@H]1C[C@H]2[C@H](O)c1ccnc2ccc(OC)cc12 [Quinine Sulfate]
Fibrin % inhibition [1, 7]: −30% | LPS % inhibition [2]: 14% | Quadrant (FIG. 5b) [3, 9]: Q4 | Fibrin % cell toxicity (primary rat microglia [4]; rat): 1% | LPS % cell toxicity (primary rat microglia [5]; rat): 1%

O=C([O-])[C@H](O)[C@@H](O)[C@H](O)[C@H](O)CO.[Na+] [Sodium Gluconate]
inhibition at 10 µM [1, 7]: 1% | inhibition at 10 µM [2, 8]: 11% | Quadrant (FIG. 5b) [3, 9]: Q4 | Fibrin % cell toxicity (primary rat microglia [4]; rat): 1% | LPS % cell toxicity (primary rat microglia [5]; rat): 0%

O=c1ccc2ccccc2o1 [2H-1-BENZOPYRAN-2-ONE]
Fibrin % inhibition ([1]; 10 µM): −35% | LPS % inhibition ([2]; 10 µM): 13% | Quadrant (FIG. 5b) [3]: Q4 | Fibrin % cell toxicity (primary rat microglia [4]): 0% | LPS % cell toxicity (primary rat microglia [5]): 0%

CO[C@@]12[C@H](COC(N)=O)C3=C(C(=O)C(C)=C(N)C3=O)N1C[C@@H]1N[C@@H]12 [Mitomycin C, Mitomycin]
Fibrin % inhibition ([1]; 10 µM): 112% | LPS % inhibition ([2]; 10 µM): 110% | Quadrant (FIG. 5b) [3]: Q2 | Fibrin % cell toxicity (primary rat microglia [4]): 74% | LPS % cell toxicity (primary rat microglia [5]): 49%

CO/N=C(\C(=O)N[C@@H]1C(=O)N2C(C(=O)O)=C(COC(N)=O)CS[C@H]12)c1ccco1 [Cefuroxime Sodium]
Fibrin % inhibition [1, 16]: −12% | LPS % inhibition ([2]; primary HTS, 10 μM, LPS-stimulated primary microglia): 19% | Quadrant (FIG. 5b) ([3]; primary HTS, 10 μM): Q4 | Fibrin % cell toxicity (primary rat microglia [4]; rat): 1% | LPS % cell toxicity (primary rat microglia [5]; rat): 1%

O=C1CN(/N=C/c2ccc(-c3ccc([N+](=O)[O-])cc3)o2)C(O)=N1 [Dantrolene]
inhibition at 10 µM [1, 10]: -6% | inhibition at 10 µM [2, 11]: 14% | Quadrant (FIG. 5b) [3, 12]: Q4 | Fibrin % cell toxicity (primary rat microglia [4]; rat): 1% | LPS % cell toxicity (primary rat microglia [5]; rat): 0%

CN1CCN(CC/C=C2/c3ccccc3Sc3ccc(S(=O)(=O)N(C)C)cc32)CC1 [Thiothixene]
inhibition at 10 µM [1, 17]: -4% | inhibition at 10 µM ([2]; Rattus norvegicus, Microglia, primary microglia HTS, 10 μM, LPS-stimulated, cell size >800 μm^2 as marker of activation; read-out: LPS % inhibition): 37% | Quadrant (FIG. 5b) [3, 18]: Q4 | Fibrin % cell toxicity (primary rat microglia [4]; rat): 0% | LPS % cell toxicity (primary rat microglia [5]; rat): 0%

CNC(=C[N+](=O)[O-])NCCSCc1csc(CN(C)C)n1 [Nizatidine]
inhibition at 10 µM [1, 13]: -18% | inhibition at 10 µM [2, 14]: 14% | Quadrant (FIG. 5b) [3, 15]: Q4 | Fibrin % cell toxicity (primary rat microglia [4]; rat): 0% | LPS % cell toxicity (primary rat microglia [5]; rat): 0%

COC1=CC(=O)C[C@@H](C)[C@]12Oc1c(Cl)c(OC)cc(OC)c1C2=O [Griseofulvin]
inhibition at 10 µM [1, 19]: 9% | inhibition at 10 µM [2, 20]: 13% | Quadrant (FIG. 5b) [3, 15]: Q4 | Fibrin % cell toxicity (primary rat microglia [4]; rat): 1% | LPS % cell toxicity (primary rat microglia [5]; rat): 0%

O=C(O)c1ccccc1 [Benzoic Acid]
inhibition at 10 µM [1]: -6% | inhibition at 10 µM [2, 6]: 6% | Quadrant (FIG. 5b) [3]: Q4 | Fibrin % cell toxicity (primary rat microglia [4]; rat): 0% | LPS % cell toxicity (primary rat microglia [5]; rat): 0%

O=C1CN(/N=C/c2ccc([N+](=O)[O-])o2)C(=O)N1 [Nitrofurantoin]
inhibition at 10 µM [1]: -3% | inhibition at 10 µM [2, 21]: 11% | Quadrant (FIG. 5b) [3]: Q4 | Fibrin % cell toxicity (primary rat microglia [4]; rat): 1% | LPS % cell toxicity (primary rat microglia [5]; rat): 0%

O=C(CCCN1CCC(O)(c2ccc(Cl)cc2)CC1)c1ccc(F)cc1 [Haloperidol]
inhibition at 10 µM [1]: -22% | inhibition at 10 µM [2, 21]: 12% | Quadrant (FIG. 5b) [3]: Q4 | Fibrin % cell toxicity (primary rat microglia [4]; rat): 1% | LPS % cell toxicity (primary rat microglia [5]; rat): 1%

Cc1c(C)c2c(c(C)c1O)CCC(C)(CCCC(C)CCCC(C)CCCC(C)C)O2 (stereo not drawn) [Alpha-tochopherol]
Fibrin % inhibition [1, 10]: 18% | LPS % inhibition ([2]; primary microglia HTS, LPS stimulation, compounds at 10 μM): 21% | Quadrant (FIG. 5b) ([3]; quadrant by fibrin and LPS inhibition, HTS at 10 μM): Q4 | Fibrin % cell toxicity (primary rat microglia [4]): 0% | LPS % cell toxicity (primary rat microglia [5]): 0%

COc1cccc2c1C(=O)c1c(O)c3c(c(O)c1C2=O)C[C@@](O)(C(=O)CO)C[C@@H]3O[C@H]1C[C@H](N)[C@@H](O)[C@H](C)O1 [Epirubicin, Epirubicin Hydrochloride]
Fibrin % inhibition [1, 13]: 113% | LPS % inhibition ([2]; primary microglia HTS, LPS stimulation; increased cell size (>800 μm^2) as marker of activation): 123% | Quadrant (FIG. 5b) [3, 15]: Q2 | Fibrin % cell toxicity (primary rat microglia [4]): 79% | LPS % cell toxicity (primary rat microglia [5]): 58%

CC(C)NCC(O)c1ccc(O)c(O)c1 (centres unmarked) [Isoprenaline]
inhibition at 10 µM [1, 19]: 29% | inhibition at 10 µM [2, 20]: 37% | Quadrant (FIG. 5b) [3, 15]: Q4 | Fibrin % cell toxicity (primary rat microglia [4]; rat): 0% | LPS % cell toxicity (primary rat microglia [5]; rat): 0%

NC(=O)c1ccccc1O [Salicylamide]
inhibition at 10 µM [1, 7]: -20% | inhibition at 10 µM [2, 8]: 16% | Quadrant (FIG. 5b) [3, 9]: Q4 | Fibrin % cell toxicity (primary rat microglia [4]; rat): 1% | LPS % cell toxicity (primary rat microglia [5]; rat): 1%

COc1ccc2cc3[n+](cc2c1OC)CCc1cc2c(cc1-3)OCO2 [Berberine]
inhibition at 10 µM [1, 16]: -62% | inhibition at 10 µM ([2]; Rattus norvegicus, Microglia, primary HTS, 10 μM, LPS-stimulated primary microglia; read-out: LPS % inhibition): 4% | Quadrant (FIG. 5b) ([3]; primary HTS, 10 μM): Q4 | Fibrin % cell toxicity (primary rat microglia [4]; rat): 0% | LPS % cell toxicity (primary rat microglia [5]; rat): 0%

CC1=C(/C=C/C(C)=C/C=C/C(C)=C/C(=O)O)C(C)(C)CCC1 [Tretinon, Tretinoin]
Fibrin % inhibition [1, 17]: 27% | LPS % inhibition ([2]; primary microglia HTS, 10 μM, LPS-stimulated, cell size >800 μm^2 as marker of activation): 34% | Quadrant (FIG. 5b) [3, 18]: Q4 | Fibrin % cell toxicity (primary rat microglia [4]): 1% | LPS % cell toxicity (primary rat microglia [5]): 1%

NC1=NCC2c3ccccc3Cc3ccccc3N12 (centres unmarked) [Epinastine]
inhibition at 10 µM [1]: -38% | inhibition at 10 µM [2, 6]: -15% | Quadrant (FIG. 5b) [3]: Q4 | Fibrin % cell toxicity (primary rat microglia [4]; rat): 1% | LPS % cell toxicity (primary rat microglia [5]; rat): 0%

CN1CCN(C2=Nc3cc(Cl)ccc3Nc3ccccc32)CC1 [Clozapine]
inhibition at 10 µM [1]: 3% | inhibition at 10 µM [2, 6]: 9% | Quadrant (FIG. 5b) [3]: Q4 | Fibrin % cell toxicity (primary rat microglia [4]; rat): 0% | LPS % cell toxicity (primary rat microglia [5]; rat): 0%
